From ChEMBL document CHEMBL1151845, “Terpenoids from Toona ciliata” (2009)
Converted amounts (≈) assume the structure as drawn.

Legend:
Trichophyton rubrum = test: Antifungal activity against Trichophyton rubrum after 48 hrs; type: functional
[1] = system: Staphylococcus epidermidis; test: Antibacterial activity against Staphylococcus epidermidis ATCC 12228 after 18 hrs; type: functional; conditions: ATCC 12228, 18 h

| SMILES | MIC (Trichophyton rubrum) | MIC [1] |
| --- | --- | --- |
| C=C[C@@]1(C)CC[C@H]2[C@@](O)(CC[C@@H]3[C@]2(C)CCC[C@]3(C)C(=O)O)C1 [TOONACILIATIN M] | 12.5 µg/mL (≈ 39 µM) |  |
| CC1COc2c(N3CCN(C)CC3)c(F)cc3c(=O)c(C(=O)O)cn1c23 (stereo not drawn) [OFLOXACIN] |  | 0.39 µg/mL (≈ 1.08 µM) |
| C[C@@H]1[C@H](O)[C@@H](C)/C=C/C=C/C=C/C=C/C=C/C=C/C=C/[C@H](O[C@@H]2O[C@H](C)[C@@H](O)[C@H](N)[C@@H]2O)C[C@@H]2O[C@](O)(C[C@@H](O)C[C@@H](O)[C@H](O)CC[C@@H](O)C[C@@H](O)CC(=O)O[C@H]1C)C[C@H](O)[C@H]2C(=O)O [AMPHOTERICIN B] | 1.56 µg/mL (≈ 1.69 µM) |  |
